Drawing on ChEMBL document CHEMBL1144991, “Autoradiographic visualization of corticotropin releasing hormone type 1 receptors with a nonpeptide ligand: synthesis of [(76)Br]MJL-1-109-2” (J Med Chem, 2003), this text covers Ki for 2 molecules.

SMILES strings stand for the structures.

For the assay, the target named is T1, Corticotropin-releasing factor receptor 1 (Rattus norvegicus, UniProt P35353).
T1 sequence (P35353 whole entry): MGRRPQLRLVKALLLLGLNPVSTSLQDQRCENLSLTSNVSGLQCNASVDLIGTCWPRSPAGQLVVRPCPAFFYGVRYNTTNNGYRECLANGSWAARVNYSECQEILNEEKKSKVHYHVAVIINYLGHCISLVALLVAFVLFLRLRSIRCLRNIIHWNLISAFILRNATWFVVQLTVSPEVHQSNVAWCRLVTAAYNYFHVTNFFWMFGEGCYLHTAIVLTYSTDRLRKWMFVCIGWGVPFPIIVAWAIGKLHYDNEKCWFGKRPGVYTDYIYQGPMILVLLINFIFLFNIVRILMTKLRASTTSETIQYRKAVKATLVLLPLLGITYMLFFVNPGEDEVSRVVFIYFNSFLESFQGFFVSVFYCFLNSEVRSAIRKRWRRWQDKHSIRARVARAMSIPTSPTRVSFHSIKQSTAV
The experiment in a line: Affinity for the Corticotropin releasing factor receptor 1 (CRHR1) was determined in rat brain. The class given is tissue-based.

By Ki is commonly meant a measure of affinity in units of concentration, obtained from inhibition or displacement. Low readings indicate tighter binding, high ones weaker binding. In the case of `COCCN(CCOC)c1nc(C)nc2c(-c3ccc(Br)cc3Cl)c(C)nn12`, the Ki came to 1.9 nM.
As for `CCCCN(CC)c1nc(C)nc2c1c(C)c(C)n2-c1c(C)cc(C)cc1C` [ANTALARMIN], the figure is 1 nM.
